Experimental data reported in patent publication US12473304B2, “Heterocyclic PAD4 inhibitors” (BRISTOL-MYERS SQUIBB COMPANY, priority 2020, dated 2025).

Molecular target: human PAD4 (hPAD4) (Homo sapiens (Human), UniProt Q9UM07)
Test: RFMS Human PAD4 Functional Assay 1
Format: biochemical
Conditions: RFMS assay 1; 5 nM hPAD4, 250 μM BAEE substrate, 50 μM calcium, 37° C.
How it was run: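 Recombinant hPAD4 (5 nM) was preincubated with compound (top 50 μM, 0.5% DMSO) for 30 min at 37 °C, then reacted with 250 μM BAEE for 90 min at 37 °C in pH 7.5 HEPES buffer with 50 μM calcium and 5 μM TPEN. Product was derivatized with phenyl glyoxal and quantified by RapidFire MS.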

Sequence of human PAD4 (hPAD4) (Q9UM07 whole entry): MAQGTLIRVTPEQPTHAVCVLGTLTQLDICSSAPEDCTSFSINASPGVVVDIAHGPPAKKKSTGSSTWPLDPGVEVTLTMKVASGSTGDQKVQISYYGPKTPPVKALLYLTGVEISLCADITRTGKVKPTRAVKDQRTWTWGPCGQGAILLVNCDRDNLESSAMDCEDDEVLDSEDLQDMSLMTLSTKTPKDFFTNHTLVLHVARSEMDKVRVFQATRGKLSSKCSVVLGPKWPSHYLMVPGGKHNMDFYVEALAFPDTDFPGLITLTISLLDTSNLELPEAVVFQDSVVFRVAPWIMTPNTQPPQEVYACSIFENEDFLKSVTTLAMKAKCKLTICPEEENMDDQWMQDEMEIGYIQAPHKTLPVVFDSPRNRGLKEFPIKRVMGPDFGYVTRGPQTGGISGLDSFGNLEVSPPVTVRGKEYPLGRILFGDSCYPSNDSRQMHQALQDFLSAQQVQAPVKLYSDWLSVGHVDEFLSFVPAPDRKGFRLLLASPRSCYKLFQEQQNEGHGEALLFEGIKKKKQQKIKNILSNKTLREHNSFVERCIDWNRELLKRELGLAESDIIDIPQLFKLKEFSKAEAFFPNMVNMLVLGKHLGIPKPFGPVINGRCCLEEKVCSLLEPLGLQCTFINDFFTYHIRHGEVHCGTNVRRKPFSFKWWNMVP

| SMILES | IC50 [nM] |
| --- | --- |
| COc1cc(C(=O)N2C[C@H](N)C[C@@H](F)C2)cn2nc(-c3cc4cccc(C5CN(C(=O)C(C)(C)OC)C5)c4n3CC3CC3)c(C)c12 [Example 518, 1-(3-(2-(6-((3R,5R)-3-Amino-5-fluoropiperidine-1-carbonyl)-4-methoxy-3-methylpyrazolo[1,5-a]pyridin-2-yl)-1-(cyclopropylmethyl)-1H-indol-7-yl)azetidin-1-yl)-2-methoxy-2-methylpropan-1-one] | 260 |
| COc1cc(C(=O)N2C[C@H](N)C[C@@H](F)C2)cn2nc(-c3cc4cccc(C5CN(C(=O)[C@H]6CC[C@@H](O)CC6)C5)c4n3CC3CC3)c(C)c12 [Example 519, ((3R,5R)-3-Amino-5-fluoropiperidin-1-yl)(2-(1-(cyclopropylmethyl)-7-(1-((1s,4s)-4-hydroxycyclohexane-1-carbonyl)azetidin-3-yl)-1H-indol-2-yl)-4-methoxy-3-methylpyrazolo[1,5-a]pyridin-6-yl)methanone] | 40 |
| COc1cc(C(=O)N2CCC[C@@H](N)C2)cn2nc(-c3cc4cccc(C5CN(C(=O)[C@H]6CC[C@@H](O)CC6)C5)c4n3CC3CC3)c(C)c12 [Example 520, ((R)-3-Aminopiperidin-1-yl)(2-(1-(cyclopropylmethyl)-7-(1-((1s,4s)-4-hydroxycyclohexane-1-carbonyl)azetidin-3-yl)-1H-indol-2-yl)-4-methoxy-3-methylpyrazolo[1,5-a]pyridin-6-yl)methanone] | 220 |
| COc1cc(C(=O)N2CCC[C@@H](N)C2)cn2nc(-c3cc4cccc(C5CN(C(=O)[C@H](C)OC)C5)c4n3CC3CC3)c(C)c12 [Example 523, (S)-1-(3-(2-(6-((R)-3-Aminopiperidine-1-carbonyl)-4-methoxy-3-methylpyrazolo[1,5-a]pyridin-2-yl)-1-(cyclopropylmethyl)-1H-indol-7-yl)azetidin-1-yl)-2-methoxypropan-1-one] | 400 |
| COc1cc(C(=O)N2C[C@H](N)C[C@@H](F)C2)cn2nc(-c3cc4cccc(C5CN(C(=O)[C@H](C)OC)C5)c4n3CC3CC3)c(C)c12 [Example 524, (S)-1-(3-(2-(6-((3R,5R)-3-Amino-5-fluoropiperidine-1-carbonyl)-4-methoxy-3-methylpyrazolo[1,5-a]pyridin-2-yl)-1-(cyclopropylmethyl)-1H-indol-7-yl)azetidin-1-yl)-2-methoxypropan-1-one] | 280 |
| COc1cc(C(=O)N2CCC[C@@H](N)C2)cn2nc(-c3cc4cccc(C5CN(C(=O)[C@@H](C)OC)C5)c4n3CC3CC3)c(C)c12 [Example 525, (R)-1-(3-(2-(6-((R)-3-Aminopiperidine-1-carbonyl)-4-methoxy-3-methylpyrazolo[1,5-a]pyridin-2-yl)-1-(cyclopropylmethyl)-1H-indol-7-yl)azetidin-1-yl)-2-methoxypropan-1-one] | 90 |
| COc1cc(C(=O)N2C[C@H](N)C[C@@H](F)C2)cn2nc(-c3cc4cccc(C5CN(C(=O)[C@@H](C)OC)C5)c4n3CC3CC3)c(C)c12 [Example 526, (R)-1-(3-(2-(6-((3R,5R)-3-Amino-5-fluoropiperidine-1-carbonyl)-4-methoxy-3-methylpyrazolo[1,5-a]pyridin-2-yl)-1-(cyclopropylmethyl)-1H-indol-7-yl)azetidin-1-yl)-2-methoxypropan-1-one] | 260 |
| COCC(=O)N1CC(c2cccc3cc(-c4nn5cc(C(=O)N6C[C@H](N)C[C@@H](F)C6)cc(OC)c5c4C)n(CC4CC4)c23)C1 [Example 527, 1-(3-(2-(6-((3R,5R)-3-Amino-5-fluoropiperidine-1-carbonyl)-4-methoxy-3-methylpyrazolo[1,5-a]pyridin-2-yl)-1-(cyclopropylmethyl)-1H-indol-7-yl)azetidin-1-yl)-2-methoxyethan-1-one] | 50 |
| COCC(=O)N1CC(c2cccc3cc(-c4nn5cc(C(=O)N6CCC[C@@H](N)C6)cc(OC)c5c4C)n(CC4CC4)c23)C1 [Example 528, (R)-1-(3-(2-(6-(3-Aminopiperidine-1-carbonyl)-4-methoxy-3-methylpyrazolo[1,5-a]pyridin-2-yl)-1-(cyclopropylmethyl)-1H-indol-7-yl)azetidin-1-yl)-2-methoxyethan-1-one] | 15000 |
| COCC(=O)N1CC(c2cccc3cc(-c4nn5cc(C(=O)N6CCC[C@@H](N)C6)cc(OC)c5c4C)n(CC4CC4)c23)C1 [Example 529, (R)-1-(3-(2-(6-(3-Aminopiperidine-1-carbonyl)-4-methoxy-3-methylpyrazolo[1,5-a]pyridin-2-yl)-1-(cyclopropylmethyl)-1H-indol-7-yl)azetidin-1-yl)-2-methoxyethan-1-one] | 1530 |
| Cc1c(-c2cc3cccc(C4CN(C(=O)[C@H]5CC[C@H](O)CC5)C4)c3n2CC2CC2)nn2cc(C(=O)N3CCC[C@@H](N)C3)ccc12 [Example 530, ((R)-3-Aminopiperidin-1-yl)(2-(1-(cyclopropylmethyl)-7-(1-((1r,4r)-4-hydroxycyclohexane-1-carbonyl)azetidin-3-yl)-1H-indol-2-yl)-3-methylpyrazolo[1,5-a]pyridin-6-yl)methanone] | 30 |
| Cc1c(-c2cc3cccc(C4CN(C(=O)[C@@H]5CCC[C@H](O)C5)C4)c3n2CC2CC2)nn2cc(C(=O)N3C[C@H](N)C[C@@H](F)C3)ccc12 [Example 531, ((3R,5R)-3-Amino-5-fluoropiperidin-1-yl)(2-(1-(cyclopropylmethyl)-7-(1-((1R,3S)-3-hydroxycyclohexane-1-carbonyl)azetidin-3-yl)-1H-indol-2-yl)-3-methylpyrazolo[1,5-a]pyridin-6-yl)methanone] | 580 |
| Cc1c(-c2cc3cccc(C4CN(C(=O)[C@@H]5CCC[C@H](O)C5)C4)c3n2CC2CC2)nn2cc(C(=O)N3CCC[C@@H](N)C3)ccc12 [Example 532, ((R)-3-Aminopiperidin-1-yl)(2-(1-(cyclopropylmethyl)-7-(1-((1R,3S)-3-hydroxycyclohexane-1-carbonyl)azetidin-3-yl)-1H-indol-2-yl)-3-methylpyrazolo[1,5-a]pyridin-6-yl)methanone] | 1010 |
| Cc1c(-c2cc3cccc(C4CN(C(=O)[C@H]5CCC[C@@H](O)C5)C4)c3n2CC2CC2)nn2cc(C(=O)N3C[C@H](N)C[C@@H](F)C3)ccc12 [Example 533, ((3R,5R)-3-Amino-5-fluoropiperidin-1-yl)(2-(1-(cyclopropylmethyl)-7-(1-((1S,3R)-3-hydroxycyclohexane-1-carbonyl)azetidin-3-yl)-1H-indol-2-yl)-3-methylpyrazolo[1,5-a]pyridin-6-yl)methanone] | 520 |
| Cc1c(-c2cc3cccc(C4CN(C(=O)[C@H]5CCC[C@@H](O)C5)C4)c3n2CC2CC2)nn2cc(C(=O)N3CCC[C@@H](N)C3)ccc12 [Example 534, ((R)-3-Aminopiperidin-1-yl)(2-(1-(cyclopropylmethyl)-7-(1-((1S,3R)-3-hydroxycyclohexane-1-carbonyl)azetidin-3-yl)-1H-indol-2-yl)-3-methylpyrazolo[1,5-a]pyridin-6-yl)methanone] | 440 |
| COC(C)(C)C(=O)N1CC(c2cccc3cc(-c4nn5cc(C(=O)N6CCC[C@@H](N)C6)ccc5c4C)n(CC4CC4)c23)C1 [Example 536, (R)-1-(3-(2-(6-(3-Aminopiperidine-1-carbonyl)-3-methylpyrazolo[1,5-a]pyridin-2-yl)-1-(cyclopropylmethyl)-1H-indol-7-yl)azetidin-1-yl)-2-methoxy-2-methylpropan-1-one] | 2520 |
| Cc1c(-c2cc3cccc(C4CN(C(=O)[C@H]5CC[C@H](O)CC5)C4)c3n2CC2CC2)nn2cc(C(=O)N3C[C@H](N)C[C@@H](F)C3)ccc12 [Example 537, ((3R,5R)-3-Amino-5-fluoropiperidin-1-yl)(2-(1-(cyclopropylmethyl)-7-(1-((1r,4r)-4-hydroxycyclohexane-1-carbonyl)azetidin-3-yl)-1H-indol-2-yl)-3-methylpyrazolo[1,5-a]pyridin-6-yl)methanone] | 70 |
| Cc1c(-c2cc3cccc(C4CN(C(=O)[C@H]5CC[C@@H](O)CC5)C4)c3n2CC2CC2)nn2cc(C(=O)N3C[C@H](N)C[C@@H](F)C3)ccc12 [Example 538, ((3R,5R)-3-Amino-5-fluoropiperidin-1-yl)(2-(1-(cyclopropylmethyl)-7-(1-((1s,4s)-4-hydroxycyclohexane-1-carbonyl)azetidin-3-yl)-1H-indol-2-yl)-3-methylpyrazolo[1,5-a]pyridin-6-yl)methanone] | 40 |
| Cc1c(-c2cc3cccc(C4CN(C(=O)[C@H]5CC[C@@H](O)CC5)C4)c3n2CC2CC2)nn2cc(C(=O)N3CCC[C@@H](N)C3)ccc12 [Example 539, ((R)-3-Aminopiperidin-1-yl)(2-(1-(cyclopropylmethyl)-7-(1-((1s,4s)-4-hydroxycyclohexane-1-carbonyl)azetidin-3-yl)-1H-indol-2-yl)-3-methylpyrazolo[1,5-a]pyridin-6-yl)methanone] | 130 |
| CO[C@H](C)C(=O)N1CC(c2cccc3cc(-c4nn5cc(C(=O)N6C[C@H](N)C[C@@H](F)C6)ccc5c4C)n(CC4CC4)c23)C1 [Example 540, (R)-1-(3-(2-(6-((3R,5R)-3-Amino-5-fluoropiperidine-1-carbonyl)-3-methylpyrazolo[1,5-a]pyridin-2-yl)-1-(cyclopropylmethyl)-1H-indol-7-yl)azetidin-1-yl)-2-methoxypropan-1-one] | 1100 |
| CO[C@H](C)C(=O)N1CC(c2cccc3cc(-c4nn5cc(C(=O)N6CCC[C@@H](N)C6)ccc5c4C)n(CC4CC4)c23)C1 [Example 541, (R)-1-(3-(2-(6-((R)-3-Aminopiperidine-1-carbonyl)-3-methylpyrazolo[1,5-a]pyridin-2-yl)-1-(cyclopropylmethyl)-1H-indol-7-yl)azetidin-1-yl)-2-methoxypropan-1-one] | 2530 |
